Calls of active or inactive are those of the source.
Tests used:
[1] = HEp-2 cell cytotoxicity, dose response, cytotoxicity control for RSV inhibitor project, HTS (AID 2410); assay type: functional; details: human respiratory syncytial virus
[2] = cells
[3] = test system: Vero; test: cells; assay type: functional, cell-based; details: Chlorocebus sabaeus
[4] = test system: HEK293; test: HEK cell cytotoxicity by LDH release, dose response, cytotoxicity control for IDE activator project, fluorescence, HEK cells (AID 588440); assay type: functional, cell-based, Homo sapiens; details: Homo sapiens, HEK293;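 further: cytotoxicity by LDH release measuring loss of membrane integrity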
[5] = test system: HEK293; test: optical interference in Abeta FP readout, dose response, artefact control for IDE activator project, biochemical, fluorescence polarization (AID 588442); assay type: functional, cell-based; details: Homo sapiens
[6] = target: T1, Insulin-degrading enzyme (Homo sapiens, UniProt P14735); test: activators of recombinant IDE enzyme, dose response, counter-screen for IDE activator project, biochemical, fluorescence polarization (AID 588681)
T1 sequence (P14735 whole entry): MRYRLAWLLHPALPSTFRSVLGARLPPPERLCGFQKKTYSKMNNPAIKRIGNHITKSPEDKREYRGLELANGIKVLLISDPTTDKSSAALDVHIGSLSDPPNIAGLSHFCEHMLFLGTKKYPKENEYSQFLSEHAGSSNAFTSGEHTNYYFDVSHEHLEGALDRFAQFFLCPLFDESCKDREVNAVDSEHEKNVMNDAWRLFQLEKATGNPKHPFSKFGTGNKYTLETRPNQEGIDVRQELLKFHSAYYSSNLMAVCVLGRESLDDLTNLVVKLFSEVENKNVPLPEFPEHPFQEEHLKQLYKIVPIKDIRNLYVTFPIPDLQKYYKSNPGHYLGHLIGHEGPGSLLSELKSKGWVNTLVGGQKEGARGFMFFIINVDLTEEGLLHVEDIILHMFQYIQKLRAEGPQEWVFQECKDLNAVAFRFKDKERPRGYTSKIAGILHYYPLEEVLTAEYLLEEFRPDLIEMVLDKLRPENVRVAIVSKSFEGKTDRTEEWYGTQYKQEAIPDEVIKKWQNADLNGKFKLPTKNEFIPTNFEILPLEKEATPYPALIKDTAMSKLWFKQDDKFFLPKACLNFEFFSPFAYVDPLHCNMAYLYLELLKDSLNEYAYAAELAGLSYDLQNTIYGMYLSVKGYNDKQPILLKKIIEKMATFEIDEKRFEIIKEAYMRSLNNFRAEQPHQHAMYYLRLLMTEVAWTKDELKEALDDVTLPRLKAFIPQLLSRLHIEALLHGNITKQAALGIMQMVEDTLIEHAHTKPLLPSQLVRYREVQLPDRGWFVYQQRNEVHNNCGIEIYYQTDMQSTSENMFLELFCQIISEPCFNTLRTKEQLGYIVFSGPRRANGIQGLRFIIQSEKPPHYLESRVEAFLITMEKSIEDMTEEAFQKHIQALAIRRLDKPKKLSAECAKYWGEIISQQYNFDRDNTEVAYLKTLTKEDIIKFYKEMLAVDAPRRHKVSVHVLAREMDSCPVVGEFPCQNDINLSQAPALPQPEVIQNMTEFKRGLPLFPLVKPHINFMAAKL

[7] = target: T1, Insulin-degrading enzyme; test: activators of endogenous IDE in HEK cells, dose response, cell-based, fluorescence polarization (AID 588439); assay type: functional
[8] = target: Cytochrome P450 2D6 (Homo sapiens, UniProt P10635);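 further: CYP2D6 member of a cytochrome P450 panel assay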
[9] = target: Cytochrome P450 2C9 (Homo sapiens, UniProt P11712)
[10] = target: Glucose-6-phosphate 1-dehydrogenase (Homo sapiens, UniProt P11413); test: human G6PD enzyme inhibitors, dose response, selectivity assay for P. falciparum G6PD inhibitor project, biochemical, fluorescence (AID 504792); assay type: functional
[11] = target: Nonstructural protein 1 (Influenza A virus, UniProt Q194T2); assay type: functional, Influenza A virus (A/California/07/2009(H1N1))
[12] = Counterscreen for AddAB inhibitors: absorbance-based bacterial cell-based high throughput dose response assay for inhibitors of bacterial viability. [Related pubchem assays (depositor defined):AID435030, AID449728, AID449731, AID488942, AID488955, AID488956]; assay type: functional
[13] = target: T2, Heat shock factor protein 1 (Mus musculus, UniProt P38532); test: inhibition of MG132-induced HSE-luciferase signal, confirmation, cell-based, NIH3T3, luminescence, dose retest (AID 2382); assay type: functional;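 further: NIH3T3 fibroblasts with HSF1-driven luciferase reporter stressed by proteasome inhibitor MG132; luminescence from HSF1-driven luciferase expression after 8 hours of MG132 stress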
T2 sequence (P38532 whole entry): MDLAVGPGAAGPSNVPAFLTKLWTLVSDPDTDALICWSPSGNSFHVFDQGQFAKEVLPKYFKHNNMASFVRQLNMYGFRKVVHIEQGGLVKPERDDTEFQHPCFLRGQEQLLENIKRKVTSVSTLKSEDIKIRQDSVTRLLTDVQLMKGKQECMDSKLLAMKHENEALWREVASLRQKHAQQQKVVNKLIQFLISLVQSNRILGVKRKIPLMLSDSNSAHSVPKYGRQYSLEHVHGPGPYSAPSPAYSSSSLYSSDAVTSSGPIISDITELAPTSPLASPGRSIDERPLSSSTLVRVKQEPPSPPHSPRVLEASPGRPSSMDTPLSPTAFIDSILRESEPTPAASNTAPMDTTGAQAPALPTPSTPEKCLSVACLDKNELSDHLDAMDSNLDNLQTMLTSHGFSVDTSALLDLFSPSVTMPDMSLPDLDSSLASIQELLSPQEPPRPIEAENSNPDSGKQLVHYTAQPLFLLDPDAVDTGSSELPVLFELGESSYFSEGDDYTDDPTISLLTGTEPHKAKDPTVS

[14] = target: T3, Kappa-type opioid receptor (Homo sapiens, UniProt P41145); assay type: functional
[15] = target: T4, Exodeoxyribonuclease V (Escherichia coli (strain K12), UniProt P04993+P07648+P08394); test: E. coli RecBCD inhibitors, dose response, counter-screen for AddAB inhibitor project, absorbance, V66 E. coli, mutant T4 phage (AID 492957); assay type: functional, cell-based, Escherichia coli str. K-12 substr. MG1655
T4 sequence (P04993 whole entry): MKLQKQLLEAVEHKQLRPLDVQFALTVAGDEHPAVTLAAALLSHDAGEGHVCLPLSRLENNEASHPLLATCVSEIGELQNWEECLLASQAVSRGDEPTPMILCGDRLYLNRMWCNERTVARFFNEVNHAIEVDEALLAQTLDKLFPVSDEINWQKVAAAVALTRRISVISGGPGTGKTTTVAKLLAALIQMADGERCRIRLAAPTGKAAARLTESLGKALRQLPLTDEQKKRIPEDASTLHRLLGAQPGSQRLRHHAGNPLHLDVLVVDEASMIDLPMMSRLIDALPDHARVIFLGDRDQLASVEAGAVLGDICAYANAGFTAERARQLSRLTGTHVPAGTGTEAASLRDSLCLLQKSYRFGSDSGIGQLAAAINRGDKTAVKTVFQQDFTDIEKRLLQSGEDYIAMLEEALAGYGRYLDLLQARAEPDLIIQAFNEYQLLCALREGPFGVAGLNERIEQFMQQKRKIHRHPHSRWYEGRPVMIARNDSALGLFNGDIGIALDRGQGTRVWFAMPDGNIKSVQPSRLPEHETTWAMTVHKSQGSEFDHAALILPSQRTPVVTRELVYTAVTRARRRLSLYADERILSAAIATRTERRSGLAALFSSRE
T4 sequence (P07648 whole entry): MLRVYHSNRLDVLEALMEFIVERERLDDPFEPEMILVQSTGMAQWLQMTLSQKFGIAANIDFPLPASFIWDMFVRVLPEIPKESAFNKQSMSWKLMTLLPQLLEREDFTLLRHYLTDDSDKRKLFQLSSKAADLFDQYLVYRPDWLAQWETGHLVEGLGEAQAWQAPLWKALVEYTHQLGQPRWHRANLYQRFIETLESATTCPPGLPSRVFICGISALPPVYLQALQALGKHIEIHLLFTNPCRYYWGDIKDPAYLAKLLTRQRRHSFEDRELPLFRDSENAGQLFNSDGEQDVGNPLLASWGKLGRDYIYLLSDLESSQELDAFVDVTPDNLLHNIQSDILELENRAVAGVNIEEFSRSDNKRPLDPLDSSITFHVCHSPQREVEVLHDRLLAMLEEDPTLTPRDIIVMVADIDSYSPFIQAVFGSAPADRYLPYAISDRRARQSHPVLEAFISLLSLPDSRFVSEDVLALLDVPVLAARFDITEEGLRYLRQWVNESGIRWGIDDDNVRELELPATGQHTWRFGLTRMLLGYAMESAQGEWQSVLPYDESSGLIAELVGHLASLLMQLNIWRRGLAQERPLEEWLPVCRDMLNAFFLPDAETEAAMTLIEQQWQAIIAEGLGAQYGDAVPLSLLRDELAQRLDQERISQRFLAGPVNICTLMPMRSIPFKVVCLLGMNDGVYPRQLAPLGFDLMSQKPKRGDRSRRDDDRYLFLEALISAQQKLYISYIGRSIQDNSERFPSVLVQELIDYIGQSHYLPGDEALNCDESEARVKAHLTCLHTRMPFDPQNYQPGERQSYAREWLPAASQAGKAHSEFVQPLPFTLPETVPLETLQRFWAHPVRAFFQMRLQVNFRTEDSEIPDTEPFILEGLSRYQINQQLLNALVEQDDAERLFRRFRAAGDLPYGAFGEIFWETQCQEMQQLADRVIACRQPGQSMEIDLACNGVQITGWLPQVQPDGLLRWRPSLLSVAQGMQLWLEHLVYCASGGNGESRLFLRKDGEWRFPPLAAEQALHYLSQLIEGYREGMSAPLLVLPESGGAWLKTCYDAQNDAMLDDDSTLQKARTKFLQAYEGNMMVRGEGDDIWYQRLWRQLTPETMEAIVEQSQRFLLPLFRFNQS
T4 sequence (P08394 whole entry): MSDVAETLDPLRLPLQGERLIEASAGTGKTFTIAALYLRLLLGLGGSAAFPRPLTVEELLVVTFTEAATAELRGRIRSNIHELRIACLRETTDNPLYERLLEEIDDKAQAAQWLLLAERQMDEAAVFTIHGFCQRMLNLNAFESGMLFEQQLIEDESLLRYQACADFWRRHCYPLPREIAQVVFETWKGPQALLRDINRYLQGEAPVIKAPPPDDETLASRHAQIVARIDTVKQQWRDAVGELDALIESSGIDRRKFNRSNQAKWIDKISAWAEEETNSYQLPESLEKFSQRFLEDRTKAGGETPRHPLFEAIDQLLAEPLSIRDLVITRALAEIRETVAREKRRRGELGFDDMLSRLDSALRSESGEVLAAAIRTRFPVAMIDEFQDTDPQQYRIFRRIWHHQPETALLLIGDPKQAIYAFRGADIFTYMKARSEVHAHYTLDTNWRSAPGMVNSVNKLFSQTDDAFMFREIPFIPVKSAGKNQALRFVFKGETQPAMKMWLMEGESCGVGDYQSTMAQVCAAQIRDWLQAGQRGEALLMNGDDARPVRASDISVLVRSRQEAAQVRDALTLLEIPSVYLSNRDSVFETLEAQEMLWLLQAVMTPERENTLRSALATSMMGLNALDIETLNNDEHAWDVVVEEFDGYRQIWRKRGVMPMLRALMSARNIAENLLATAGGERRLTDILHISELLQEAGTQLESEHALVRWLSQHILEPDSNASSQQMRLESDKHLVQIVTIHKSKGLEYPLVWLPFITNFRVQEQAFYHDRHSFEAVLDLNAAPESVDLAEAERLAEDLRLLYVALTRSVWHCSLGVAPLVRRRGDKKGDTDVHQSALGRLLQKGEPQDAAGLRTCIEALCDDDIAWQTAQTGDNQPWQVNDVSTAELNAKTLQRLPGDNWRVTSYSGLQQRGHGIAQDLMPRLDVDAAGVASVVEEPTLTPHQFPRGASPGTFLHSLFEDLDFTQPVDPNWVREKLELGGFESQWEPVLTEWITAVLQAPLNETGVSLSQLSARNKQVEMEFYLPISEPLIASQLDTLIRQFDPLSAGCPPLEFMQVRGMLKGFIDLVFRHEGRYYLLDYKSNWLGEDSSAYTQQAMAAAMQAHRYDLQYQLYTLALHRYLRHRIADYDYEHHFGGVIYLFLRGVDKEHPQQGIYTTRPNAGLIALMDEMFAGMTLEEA

[16] = target: Beta-galactosidase (Escherichia coli, UniProt Q8VNN2); assay type: functional
[17] = target: T3, Kappa-type opioid receptor; assay type: functional; remark: listed apart in the source
[18] = test system: Vero; test: Vero cell cytotoxicity, cytotoxicity control for flavivirus capping enzyme inhibitors (AID 588742); assay type: functional; details: Chlorocebus sabaeus
[19] = test system: Vero; test: cells; assay type: functional; details: Chlorocebus sabaeus

Cytochrome P450 2C9, sequence (P11712 whole entry): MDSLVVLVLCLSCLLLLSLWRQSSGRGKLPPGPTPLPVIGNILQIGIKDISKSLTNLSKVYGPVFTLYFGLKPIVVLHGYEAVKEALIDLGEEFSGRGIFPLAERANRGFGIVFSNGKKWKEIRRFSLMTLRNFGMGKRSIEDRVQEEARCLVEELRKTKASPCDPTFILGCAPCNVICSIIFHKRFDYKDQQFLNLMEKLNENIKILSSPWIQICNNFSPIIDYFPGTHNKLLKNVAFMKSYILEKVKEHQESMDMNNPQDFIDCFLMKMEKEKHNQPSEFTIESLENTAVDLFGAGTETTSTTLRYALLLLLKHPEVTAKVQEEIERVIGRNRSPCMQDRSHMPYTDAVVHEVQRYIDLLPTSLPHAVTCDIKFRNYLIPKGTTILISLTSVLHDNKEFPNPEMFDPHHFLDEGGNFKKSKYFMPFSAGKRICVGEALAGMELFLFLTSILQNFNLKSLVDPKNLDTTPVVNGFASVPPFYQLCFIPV
T3 sequence (P41145 whole entry): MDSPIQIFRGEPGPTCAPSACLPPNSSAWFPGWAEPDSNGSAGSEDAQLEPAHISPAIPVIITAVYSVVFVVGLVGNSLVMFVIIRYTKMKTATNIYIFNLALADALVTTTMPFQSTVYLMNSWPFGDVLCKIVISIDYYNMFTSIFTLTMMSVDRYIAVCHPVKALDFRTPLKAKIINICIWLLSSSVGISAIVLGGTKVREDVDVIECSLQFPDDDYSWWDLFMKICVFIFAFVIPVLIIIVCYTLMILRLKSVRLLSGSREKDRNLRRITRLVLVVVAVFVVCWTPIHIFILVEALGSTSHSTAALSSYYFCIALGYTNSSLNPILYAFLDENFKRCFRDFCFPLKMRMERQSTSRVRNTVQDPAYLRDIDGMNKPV
Beta-galactosidase, sequence (Q8VNN2 whole entry): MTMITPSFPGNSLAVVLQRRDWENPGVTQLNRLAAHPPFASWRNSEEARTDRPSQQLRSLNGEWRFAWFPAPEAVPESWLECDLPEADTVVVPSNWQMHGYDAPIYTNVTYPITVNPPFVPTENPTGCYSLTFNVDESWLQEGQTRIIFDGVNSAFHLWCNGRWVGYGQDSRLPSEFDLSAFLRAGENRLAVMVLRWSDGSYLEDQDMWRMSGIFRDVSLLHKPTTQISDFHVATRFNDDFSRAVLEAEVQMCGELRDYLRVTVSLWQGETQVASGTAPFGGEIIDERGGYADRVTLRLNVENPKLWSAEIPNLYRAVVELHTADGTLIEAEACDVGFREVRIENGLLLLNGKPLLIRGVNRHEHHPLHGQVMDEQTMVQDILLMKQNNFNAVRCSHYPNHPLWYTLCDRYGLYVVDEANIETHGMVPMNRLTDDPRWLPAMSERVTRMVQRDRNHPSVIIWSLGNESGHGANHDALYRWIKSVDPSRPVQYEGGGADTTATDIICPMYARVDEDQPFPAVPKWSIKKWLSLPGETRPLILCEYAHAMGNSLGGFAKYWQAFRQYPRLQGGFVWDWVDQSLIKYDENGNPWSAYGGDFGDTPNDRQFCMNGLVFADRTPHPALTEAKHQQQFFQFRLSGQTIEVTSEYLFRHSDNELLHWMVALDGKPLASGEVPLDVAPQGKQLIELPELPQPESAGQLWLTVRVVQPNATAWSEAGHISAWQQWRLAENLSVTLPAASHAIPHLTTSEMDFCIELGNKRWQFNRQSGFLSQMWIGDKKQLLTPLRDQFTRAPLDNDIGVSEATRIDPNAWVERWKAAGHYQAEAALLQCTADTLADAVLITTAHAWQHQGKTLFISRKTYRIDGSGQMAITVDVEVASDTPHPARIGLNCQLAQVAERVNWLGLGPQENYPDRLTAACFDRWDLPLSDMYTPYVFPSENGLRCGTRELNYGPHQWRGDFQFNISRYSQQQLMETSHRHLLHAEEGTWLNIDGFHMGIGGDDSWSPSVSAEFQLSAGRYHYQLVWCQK
Nonstructural protein 1, sequence (Q194T2 whole entry): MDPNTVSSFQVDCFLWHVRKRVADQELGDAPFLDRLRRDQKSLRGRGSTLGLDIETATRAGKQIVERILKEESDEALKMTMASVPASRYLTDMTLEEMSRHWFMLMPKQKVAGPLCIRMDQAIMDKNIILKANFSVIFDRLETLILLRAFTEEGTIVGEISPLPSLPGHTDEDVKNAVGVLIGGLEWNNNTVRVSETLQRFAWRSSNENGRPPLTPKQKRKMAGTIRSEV
Glucose-6-phosphate 1-dehydrogenase, sequence (P11413 whole entry): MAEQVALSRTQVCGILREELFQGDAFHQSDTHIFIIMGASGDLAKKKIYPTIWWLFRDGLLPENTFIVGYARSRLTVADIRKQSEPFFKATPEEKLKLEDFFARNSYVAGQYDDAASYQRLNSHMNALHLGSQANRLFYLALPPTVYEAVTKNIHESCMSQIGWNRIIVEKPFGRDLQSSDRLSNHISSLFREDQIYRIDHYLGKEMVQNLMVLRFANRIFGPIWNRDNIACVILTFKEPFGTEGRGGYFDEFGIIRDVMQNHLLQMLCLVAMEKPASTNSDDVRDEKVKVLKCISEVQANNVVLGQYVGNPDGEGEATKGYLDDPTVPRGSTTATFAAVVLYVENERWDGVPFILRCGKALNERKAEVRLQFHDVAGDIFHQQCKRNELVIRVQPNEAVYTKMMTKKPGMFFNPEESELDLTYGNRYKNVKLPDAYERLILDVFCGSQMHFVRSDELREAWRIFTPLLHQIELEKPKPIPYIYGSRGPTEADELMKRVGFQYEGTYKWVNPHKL
Cytochrome P450 2D6, sequence (P10635 whole entry): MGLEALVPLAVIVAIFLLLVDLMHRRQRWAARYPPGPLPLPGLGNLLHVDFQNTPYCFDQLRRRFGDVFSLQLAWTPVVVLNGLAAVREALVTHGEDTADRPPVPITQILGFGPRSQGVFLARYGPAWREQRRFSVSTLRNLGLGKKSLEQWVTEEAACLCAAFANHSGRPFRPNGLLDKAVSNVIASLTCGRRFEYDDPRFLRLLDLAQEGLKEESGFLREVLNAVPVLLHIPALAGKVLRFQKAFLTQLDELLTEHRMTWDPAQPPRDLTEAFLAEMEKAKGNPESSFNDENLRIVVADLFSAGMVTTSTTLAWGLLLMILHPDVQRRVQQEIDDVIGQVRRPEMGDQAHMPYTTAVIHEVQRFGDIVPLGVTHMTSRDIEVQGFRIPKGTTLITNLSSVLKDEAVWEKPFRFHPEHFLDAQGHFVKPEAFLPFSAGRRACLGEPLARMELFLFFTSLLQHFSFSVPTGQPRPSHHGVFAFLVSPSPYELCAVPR

O=C(O)c1cc(-c2ccc3ccccc3c2)nc2ccc(F)cc12
CC50 [1]: 12.1 µM (active) | IC50 [2]: 19.2 µM (active) | IC50 [3]: > 25 µM (active)

CCn1c(=O)c([N+](=O)[O-])c(NCc2ccc3c(c2)OCO3)c2ccccc21
IC50 [4]: > 89.2 µM (inactive) | EC50 [5]: > 55.9 µM (inactive) | EC50 [6]: > 54.7 µM (inactive) | EC50 [7]: > 54.7 µM (inactive)

CCN1C(=O)/C(=C2\SC(N3CCCCC3)=NC2=O)c2ccccc21
AC50 [8]: 3.16 µM (inconclusive) | AC50 [9]: inconclusive

CC(=O)Nc1cc([N+](=O)[O-])ccc1OCc1ccccc1
IC50 [10]: > 80 µM (inactive)

CN(Cc1nnc(S)n1C)S(=O)(=O)c1ccccc1
AC50 [9]: inconclusive

O=C1Nc2ccccc2C2=NC(CN3CCN(c4cccc(Cl)c4)CC3)CN12 (stereo not given)
AC50 [9]: inconclusive

O=C(CSC1=NNC(c2ccccn2)S1)Nc1ccccc1 (stereo not given)
IC50 [11]: 0.986 µM (active) | IC50 [12]: > 118 µM (inactive) | EC50 [13]: 3.04 µM (active) | IC50 [14]: > 32 µM | IC50 [15]: > 118 µM (inactive) | EC50 [16]: > 31.5 µM (inactive) | IC50 [17]: > 31.5 µM (inactive)

O=C(O)CC1SC(N/N=C/c2ccccn2)=NC1=O (stereo not given)
IC50 [12]: > 118 µM (inactive) | IC50 [15]: > 118 µM (inactive)

CSc1nc(Cl)cc(N(CCO)CCO)n1
AC50 [9]: inconclusive

CN=c1ccc(Br)cc(C(=O)/C=C/c2cccc(Cl)c2Cl)c1O
CC50 [18]: 18 µM (active) | CC50 [19]: 9.23 µM (active) | IC50 [3]: > 25 µM (active)
